In brackets after ≈: the same amount, converted by molar mass.
Columns and labels:
[1] = Solubility of Compound 5 when preparing the test solution; format: physicochemical
Excerpt: Its water solution (or saline solution) was acidic. […] Suitable co-solvents were selected to enhance the solubility. Studied the solubility enhancing effects of Tween-80 (final concentration 0.02-2%, v/v), PEG-400 (final concentration <40%, v/v), 1, 2-propanediol (final concentration <40%, v/v), glycerol (final concentration <30%, v/v), and CMC-Na (final concentration 1-5%, w/v). […] Considering formulations comprising tween compounds may lead to hemolysis, PEG-400 was selected as the co-solvent.

A549 cells xenograft = experiment: In vivo anti-tumor activity, A549 nude mouse model; details: for Weights (g) After treatment: body weight after treatment; for Weights (g) Before treatment: body weight before treatment
Description: The nude mice were fed in the SPF-system, six mice in a cage. The nude mice were provided with standard food and water, maintained in the light and dark cycling conditions (12/12 h), room temperature 25±2° C., humidity 50±10%. The water and beddings were steriled and changed every day. The mice were fed in the maintenance room for a week before the experiments.
Accurately weighed a certain amount of injection grade doxorubicin powder, added saline to obtain a 0.4 mg/mL test solution. The test solution is prepared avoiding light and handy for use.
Human non-small cell lung cancer cell line A549 was resuscitated. The ratio of FBS in the culture was increased from 6% to 10%, so as to make the cells proliferated rapidly. When the cell coverage in the culture flask reached 80% or so (i.e., logarithmic growth phase), the A549 cells were digested and suspended. Using autoclaved PBS to wash the cells twice to remove the residual culture medium. And then the cells were resuspended with PBS and adjusted the cells concentration to 1×10^7 cells/mL.
After the mice accustomed to the environment, under steriled condition, using disposable syringe to transfer A549 cells (1×10^7/mL) and subcutaneously inoculated in the flank of nude mice. 0.2 ml of suspension of A549 cells was injected into each nude mice and the procedure was finished within 30 min. The rest of the cells were subjected to culture and observed for any contamination, so as to provide information on whether the construction of animal model was success.
After the inoculation of cancer cells was success and the volume of xenograft tumors reached 50 to 100 mm^3, the animals were divided randomly into 5 groups (high dosage, middle dosage, low dosage, positive control, blank control) and each group comprised 6 mice.
The animals were administered once per day. The injection volume was adjusted according to the weight measured. The animals were administered for 12 days. Positive control group was injected with 2 mg/kg Doxorubicin. The animals were administered once every 3 days, and 4 times in the 12-day period. Blank control group was injected with saline solution.
During the administration period, the living and mental state of the mice were observed every day. Body weight and tumor size was measured and recorded. The tumor size was measured using Vernier caliper and tumor volumes were calculated using the formula: V (mm^3)=½×L (mm)×W^2 (mm^2) in which L is the length and W is the width of the solid tumor nodules.
24 hrs after the last administration, the nude mice were sacrificed and the tumor was removed for volume measurements. Tumor inhibition rate was calculated.
Each mouse was weighted 24 hours after administration. In the end of the experiment, the mice were sacrifice by treating at the neck area. The tumor was removed for volume measurements and took photos.
The experimental data were analyzed by SPSS 13.0 software Comparison between groups were carried out by one-way ANOVA or two-sample comparison of U-test. Results were provided in mean±SE, difference with P<0.05 was deemed significant.

[2] = test system: nasopharyngeal carcinoma cell line (CNE2); experiment: MTT inhibition of CNE2 cancer cell line; format: cell-based; details: Homo sapiens, CNE-2, CNE2, 72 hs
Description: (§1) 1. Preparing test solutions: taking a certain amount of compounds 5, using dimethyl sulfoxide (DMSO) to dissolve the compound, and using cell growth medium for each corresponding cell line to dilute the solution to 5 concentrations of test solutions: 500, 250, 125, 62.5, 31.25 μg/mL. The positive control doxorubicin were diluted with cell growth medium for each corresponding cell line to 3 concentrations: 5, 2.5, 1.25 μM. Seven human cancer cell lines, including five adhesive cancer cell lines: human gastric cancer cell line (MKN-45), non-small cell lung cancer cell line (A549), nasopharyngeal carcinoma cell line (CNE1, CNE2), large cell lung cancer cell line (PC-9); and two suspensive cancer cell lines: human promyelocytic leukemia cell line (HL60), human chronic myelogenous leukemia cell line (K562). All seven human cancer cell lines are purchased from Shanghai Chinese Academy of Sciences Cell Bank and stored in School of Medicine of Fujian Medical University. The aforementioned seven cancer cell lines were recovered from the liquid nitrogen, and then cultured in 25 cm^2 flasks under the corresponding culture conditions of each cell lines (see Table 2). […] OD was measured with microplate reader under wavelength of 492 nm and then the inhibition rate was calculated. […]

[3] = test system: human promyelocytic leukemia cell line (HL60); experiment: MTT inhibition of HL60 cancer cell line; format: cell-based; details: HL-60, HL60, 72 hs
Description: as §1

[4] = test system: nasopharyngeal carcinoma cell line (CNE1); experiment: MTT inhibition of CNE1 cancer cell line; format: cell-based; details: Homo sapiens, CNE1, 72 hs
Description: as §1

[5] = test system: human gastric cancer cell line (MKN-45); experiment: MTT inhibition of MKN-45 cancer cell line; format: cell-based; details: MKN-45, 72 hs
Description: as §1

[6] = test system: non-small cell lung cancer cell line (A549); experiment: MTT inhibition of A549 cancer cell line; format: cell-based; details: Homo sapiens, A549, 72 hs
Description: as §1

[7] = test system: human chronic myelogenous leukemia cell line (K562); experiment: MTT inhibition of K562 cancer cell line; format: cell-based; details: K562, 72 hs
Description: as §1

[8] = test system: large cell lung cancer cell line (PC-9); experiment: MTT inhibition of PC-9 cancer cell line; format: cell-based; details: Homo sapiens, PC-9, 72 hs
Description: as §1

[9] = High dosage 30 mg/kg tail vein once per day, 12 days
[10] = Low dosage 5 mg/kg tail vein once per day, 12 days
[11] = Middle dosage 15 mg/kg tail vein once per day, 12 days
[12] = 2 mg/kg tail vein once every 3 days, 4 times in 12 days

## O=c1cc(-c2ccc(Oc3c(-c4ccc(O)cc4)oc4cc(O)cc(O)c4c3=O)cc2)oc2cc(O)cc(O)c12 [Compound 5, 3-(4-(5,7-dihydroxy-4-oxo-4H-benzopyran-2-yl)phenoxyl)-5,7-dihydroxy-2-(4-hydroxyphenyl)-4H-benzopyran-4-one]
[1]; pH adjusted to 6.0-8.0
  solubility at injection acceptable pH: still quite low
[1]; water
  solubility in water: poorly dissolved in water
A549 cells xenograft; 5-30 mg/kg tail vein once per day, 12 days
  toxicity in nude mice: low
A549 cells xenograft; [9]
  Tumor Weight-inhibitions(%): 62.2±21.3%
  Tumor weights: 0.193 ± 0.056 g
  Weights (g) After treatment: 24.4 ± 1.6 g
  Weights (g) Before treatment: 22.4 ± 1.2 g
A549 cells xenograft; [10]
  Tumor Weight-inhibitions(%): 36.9±6.1%
  Tumor weights: 0.305 ± 0.039 g
  Weights (g) After treatment: 23.4 ± 0.7 g
  Weights (g) Before treatment: 22.8 ± 0.8 g
A549 cells xenograft; [11]
  Tumor Weight-inhibitions(%): 43.7±19.8%
  Tumor weights: 0.287 ± 0.101 g
  Weights (g) After treatment: 24.9 ± 1.0 g
  Weights (g) Before treatment: 23.9 ± 1.5 g
[2]
  IC50: 13.3 ± 2.6 µg/mL (≈ 24.7 µM)
[3]
  IC50: 18.3 ± 3 µg/mL (≈ 34 µM)
[4]
  IC50: 49.3 ± 2.8 µg/mL (≈ 91.5 µM)
[5]
  IC50: 33.2 ± 3.1 µg/mL (≈ 61.7 µM)
[6]
  IC50: 13.2 ± 0.91 µg/mL (≈ 24.5 µM)
[7]
  IC50: 16.8 ± 2.8 µg/mL (≈ 31.2 µM)
[8]
  IC50: 21.8 ± 1.3 µg/mL (≈ 40.5 µM)

## COc1cccc2c1C(=O)c1c(O)c3c(c(O)c1C2=O)C[C@@](O)(C(=O)CO)C[C@@H]3O[C@H]1C[C@H](N)[C@H](O)[C@H](C)O1 [Doxorubicin, reference compound]
A549 cells xenograft; [12]
  Tumor Weight-inhibitions(%): 56.8±5.6%
  Tumor weights: 0.220 ± 0.037 g
  Weights (g) After treatment: 23.6 ± 1.1 g
  Weights (g) Before treatment: 22.7 ± 1.9 g
